≈ marks a conversion by molar mass, not a printed value. Some results are limits rather than exact numbers.

The nature of this data set: Water solubility test. The format is physicochemical. The settings on record: for solubility at 10 min: water, thermodynamic from solid. The procedure: The solubility of prenylquercetins and their glucosides were determined based on the previously reported method with some modifications. Briefly, each compound (4 mg) was dissolved in 1 mL of distilled water at room temperature followed by sonication for 10 min and centrifugation at 3600 rpm for 5 min at room temperature. Then the concentrations of the compounds in the supernatant were measured based on their peak areas utilizing calibration curves determined by the HPLC of authentic samples.

Turning to `CC(C)=CCc1c(O)cc(O)c2c(=O)c(O)c(-c3ccc(O)c(O)c3)oc12` [Compound 1, 8-prenylquercetin], the concentration in solution (solubility at 10 min) was 13 µg/mL (≈ 35.1 µM).
On the same count and under the same terms, as for `CC(C)=CCc1cc(O)c(O)cc1-c1oc2cc(O)cc(O)c2c(=O)c1O` [Compound 2, 6′-prenylquercetin], the figure is 63 µg/mL (≈ 170 µM); as for `CC(C)=CCc1cc(O)c(O)cc1-c1oc2c(CC=C(C)C)c(O)cc(O)c2c(=O)c1O` [Compound 3, 8,6′-diprenylquercetin], 20 µg/mL (≈ 45.6 µM).
Still for that read-out and setting: in the case of `CC(C)=CCc1c(O[C@@H]2O[C@H](CO)[C@@H](O)[C@H](O)[C@H]2O)cc(O)c2c(=O)c(O)c(-c3ccc(O)c(O)c3)oc12` [Compound 4, 8-Prenylquercetin 7-O-β-D-glucopyranoside] it was 501 µg/mL (≈ 941 µM).
Same read-out and setting: as for `CC(C)=CCc1c(O)cc(O)c2c(=O)c(O[C@@H]3O[C@H](CO)[C@@H](O)[C@H](O)[C@H]3O)c(-c3ccc(O)c(O)c3)oc12` [Compound 5, 8-Prenylquercetin 3-O-β-D-glucopyranoside], the figure is 385 µg/mL (≈ 723 µM); as for `CC(C)=CCc1cc(O)c(O)cc1-c1oc2cc(O[C@@H]3O[C@H](CO)[C@@H](O)[C@H](O)[C@H]3O)cc(O)c2c(=O)c1O` [Compound 6, 6′-Prenylquercetin 7-O-β-D-glucopyranoside], 1980 µg/mL (≈ 3710 µM).
Turning to `CC(C)=CCc1cc(O[C@@H]2O[C@H](CO)[C@@H](O)[C@H](O)[C@H]2O)c(O)cc1-c1oc2cc(O)cc(O)c2c(=O)c1O` [Compound 7, 6′-Prenylquercetin 4′-O-β-D-glucopyranoside], the concentration in solution (solubility at 10 min) came to 3640 µg/mL (≈ 6830 µM).
As for `CC(C)=CCc1cc(O[C@@H]2O[C@H](CO)[C@@H](O)[C@H](O)[C@H]2O)c(O)cc1-c1oc2c(CC=C(C)C)c(O[C@@H]3O[C@H](CO)[C@@H](O)[C@H](O)[C@H]3O)cc(O)c2c(=O)c1O` [Compound 8, 8,6′-Diprenylquercetin 7,4′-O-β-D-diglucopyranoside], the “Water solubility, comparison in words” value was “higher solubility than metabolite 9” and the solubility (commonly the concentration that dissolves in the medium under given conditions) at 10 min was over 4000 µg/mL.
Consider `CC(C)=CCc1cc(O)c(O)cc1-c1oc2c(CC=C(C)C)c(O[C@@H]3O[C@H](CO)[C@@H](O)[C@H](O)[C@H]3O)cc(O)c2c(=O)c1O` [Compound 9, 8,6′-Diprenylquercetin 7-O-β-D-glucopyranoside], for which the concentration in solution (solubility at 10 min) was 613 µg/mL (≈ 1020 µM).
Turning to `O=c1c(O)c(-c2ccc(O)c(O)c2)oc2cc(O)cc(O)c12` [Quercetin], the “Solubility (water solubility)” value (distilled water, room temperature, 4 mg in 1 mL, sonication 10 min, centrifugation, supernatant by HPLC) stood at 36 µg/mL (≈ 119 µM).

For the origin of these results see article PMC7037548, “Microbial Transformation of Prenylquercetins by Mucor hiemalis” (Molecules, 2020).
